Assay results: patent US9452986B2, “6-heteroaryloxy- or 6-aryloxy-quinoline-2-carboxamides and method of use” (AbbVie Inc., priority 2014, dated 2016)

Biological target: recombinant human Nav1.7 (Homo sapiens (Human), UniProt Q15858)
Experiment: FRET-based membrane potential assay, recombinant human sodium channel Nav1.7
Assay type: cell-based
Details: HEK293 cells stably expressing recombinant human Nav1.7; veratridine + scorpion venom depolarization; read-out: FRET-Membrane Potential Nav1.7 IC50
Procedure, shortened: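 Channel activation used veratridine at its EC80, set by a dilution curve each experiment, together with Leiurus scorpion venom, added 3 min after compound. Membrane-potential ratio signals from FLIPR Tetra in HEPES-buffered HBSS were fitted to a four-parameter Hill equation for percent inhibition and IC50.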

Sequence of recombinant human Nav1.7 (Q15858 whole entry): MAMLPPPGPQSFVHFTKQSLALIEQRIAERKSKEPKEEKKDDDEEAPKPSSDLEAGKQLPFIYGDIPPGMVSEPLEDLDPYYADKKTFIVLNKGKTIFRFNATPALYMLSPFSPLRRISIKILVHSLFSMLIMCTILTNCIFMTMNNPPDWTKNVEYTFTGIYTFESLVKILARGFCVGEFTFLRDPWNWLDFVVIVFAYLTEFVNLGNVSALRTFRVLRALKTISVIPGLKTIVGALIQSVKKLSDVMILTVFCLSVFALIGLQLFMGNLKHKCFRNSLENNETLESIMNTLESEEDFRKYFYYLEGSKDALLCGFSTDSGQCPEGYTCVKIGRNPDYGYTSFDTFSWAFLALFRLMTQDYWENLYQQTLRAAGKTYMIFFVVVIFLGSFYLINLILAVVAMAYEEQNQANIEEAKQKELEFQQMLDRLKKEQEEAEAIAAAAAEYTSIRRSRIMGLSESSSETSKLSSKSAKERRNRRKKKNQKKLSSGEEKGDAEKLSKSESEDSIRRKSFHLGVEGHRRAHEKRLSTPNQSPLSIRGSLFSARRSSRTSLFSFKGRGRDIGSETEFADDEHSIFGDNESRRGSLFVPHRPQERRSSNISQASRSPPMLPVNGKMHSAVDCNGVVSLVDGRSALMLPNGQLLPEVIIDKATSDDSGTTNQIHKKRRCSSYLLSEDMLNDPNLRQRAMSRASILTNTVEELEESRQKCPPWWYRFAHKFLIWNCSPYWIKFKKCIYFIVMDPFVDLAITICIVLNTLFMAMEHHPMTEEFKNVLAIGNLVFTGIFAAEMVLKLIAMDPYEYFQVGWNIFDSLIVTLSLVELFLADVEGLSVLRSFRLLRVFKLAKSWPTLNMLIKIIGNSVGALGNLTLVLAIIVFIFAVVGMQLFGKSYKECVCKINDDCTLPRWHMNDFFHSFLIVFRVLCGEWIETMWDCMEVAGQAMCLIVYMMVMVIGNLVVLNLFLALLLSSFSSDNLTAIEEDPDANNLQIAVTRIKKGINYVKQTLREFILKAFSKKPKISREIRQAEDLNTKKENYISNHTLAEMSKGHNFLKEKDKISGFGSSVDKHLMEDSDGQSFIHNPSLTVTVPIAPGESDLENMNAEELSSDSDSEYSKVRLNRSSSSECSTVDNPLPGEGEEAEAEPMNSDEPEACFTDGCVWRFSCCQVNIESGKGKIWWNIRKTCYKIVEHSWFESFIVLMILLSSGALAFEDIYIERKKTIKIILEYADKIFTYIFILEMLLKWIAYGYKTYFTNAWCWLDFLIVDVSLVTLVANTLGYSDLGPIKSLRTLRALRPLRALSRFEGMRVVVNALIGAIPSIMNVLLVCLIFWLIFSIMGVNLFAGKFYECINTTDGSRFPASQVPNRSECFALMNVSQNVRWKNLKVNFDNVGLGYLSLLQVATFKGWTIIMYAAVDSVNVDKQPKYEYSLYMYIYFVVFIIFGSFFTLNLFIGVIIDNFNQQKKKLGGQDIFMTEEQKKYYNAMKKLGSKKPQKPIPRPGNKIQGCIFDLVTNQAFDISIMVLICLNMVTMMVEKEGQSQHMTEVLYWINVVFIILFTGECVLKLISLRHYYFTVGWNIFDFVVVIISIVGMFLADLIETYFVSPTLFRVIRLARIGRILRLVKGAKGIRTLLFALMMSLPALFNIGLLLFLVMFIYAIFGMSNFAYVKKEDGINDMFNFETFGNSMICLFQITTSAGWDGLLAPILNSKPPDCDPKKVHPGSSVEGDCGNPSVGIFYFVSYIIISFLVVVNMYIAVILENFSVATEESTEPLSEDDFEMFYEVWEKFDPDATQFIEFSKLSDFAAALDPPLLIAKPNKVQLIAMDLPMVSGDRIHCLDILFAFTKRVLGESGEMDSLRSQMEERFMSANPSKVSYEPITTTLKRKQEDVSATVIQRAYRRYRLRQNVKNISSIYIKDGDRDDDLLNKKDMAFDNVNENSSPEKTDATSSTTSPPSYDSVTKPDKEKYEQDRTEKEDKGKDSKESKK

Question: How did the IC50 turn out when `O=C(c1ccc2cc(Oc3ccc(C(F)(F)F)cn3)ccc2n1)N1C[C@@H]2C[C@H]1CN2` [Example 3, (1S,4S)-2,5-diazabicyclo[2.2.1]hept-2-yl(6-{[5-(trifluoromethyl)pyridin-2-yl]oxy}quinolin-2-yl)methanone] was run?
Answer: 1.45 µM

Question: `O=C(N[C@@H]1CCS(=O)(=O)C1)c1ccc2cc(Oc3ccc(C(F)(F)F)cn3)ccc2n1` [Example 5, N-[(3R)-1,1-dioxidotetrahydrothiophen-3-yl]-6-{[5-(trifluoromethyl)pyridin-2-yl]oxy}quinoline-2-carboxamide] was tested. Which IC50 did it give?
Answer: 0.262 µM

Question: For `NC1CN(C(=O)c2ccc3cc(Oc4ccc(C(F)(F)F)cn4)ccc3n2)C1` [Example 8, (3-aminoazetidin-1-yl)(6-{[5-(trifluoromethyl)pyridin-2-yl]oxy}quinolin-2-yl)methanone], which IC50 is on record?
Answer: 0.232 µM

Question: How did the IC50 turn out when `O=C(c1ccc2cc(Oc3ccc(C(F)(F)F)cn3)ccc2n1)N1C[C@@H](O)[C@@H](O)C1` [Example 9, [cis-3,4-dihydroxypyrrolidin-1-yl](6-{[5-(trifluoromethyl)pyridin-2-yl]oxy}quinolin-2-yl)methanone] was run?
Answer: 2.08 µM

Question: For `N#CCCCNC(=O)c1ccc2cc(Oc3ccc(C(F)(F)F)cn3)ccc2n1` [Example 595, N-(3-cyanopropyl)-6-{[5-(trifluoromethyl)pyridin-2-yl]oxy}quinoline-2-carboxamide], which IC50 is on record?
Answer: 1.13 µM

Question: `O=C(NC1CCC1)c1ccc2cc(Oc3ccc(C(F)(F)F)cn3)ccc2n1` [Example 596, N-cyclobutyl-6-{[5-(trifluoromethyl)pyridin-2-yl]oxy}quinoline-2-carboxamide] was tested. Which IC50 did it give?
Answer: 1.76 µM

Question: For `O=C(c1ccc2cc(Oc3ccc(C(F)(F)F)cn3)ccc2n1)N1CCNCC1C(F)(F)F` (stereo not shown) [Example 598, [2-(trifluoromethyl)piperazin-1-yl](6-{[5-(trifluoromethyl)pyridin-2-yl]oxy}quinolin-2-yl)methanone], which IC50 is on record?
Answer: 2.98 µM

Question: Which IC50 does the source give for `COCCCNC(=O)c1ccc2cc(Oc3ccc(C(F)(F)F)cn3)ccc2n1` [Example 599, N-(3-methoxypropyl)-6-{[5-(trifluoromethyl)pyridin-2-yl]oxy}quinoline-2-carboxamide] here?
Answer: 1.59 µM

Question: With `O=C(NCC1CSC1)c1ccc2cc(Oc3ccc(C(F)(F)F)cn3)ccc2n1` [Example 600, N-(thietan-3-ylmethyl)-6-{[5-(trifluoromethyl)pyridin-2-yl]oxy}quinoline-2-carboxamide] as the compound, how does the IC50 read?
Answer: 1.76 µM

Question: Which IC50 does the source give for `O=C(NCC1C[S+]([O-])C1)c1ccc2cc(Oc3ccc(C(F)(F)F)cn3)ccc2n1` (stereo not shown) [Example 601, N-[(1-oxidothietan-3-yl)methyl]-6-{[5-(trifluoromethyl)pyridin-2-yl]oxy}quinoline-2-carboxamide] here?
Answer: 2.51 µM

Question: For `O=C(NCC1CS(=O)(=O)C1)c1ccc2cc(Oc3ccc(C(F)(F)F)cn3)ccc2n1` [Example 602, N-[(1,1-dioxidothietan-3-yl)methyl]-6-{[5-(trifluoromethyl)pyridin-2-yl]oxy}quinoline-2-carboxamide], which IC50 is on record?
Answer: 1.07 µM

Question: How did the IC50 turn out when `O=C(NC1CC(F)C1)c1ccc2cc(Oc3ccc(C(F)(F)F)cn3)ccc2n1` (stereo not shown) [Example 604, N-(3-fluorocyclobutyl)-6-{[5-(trifluoromethyl)pyridin-2-yl]oxy}quinoline-2-carboxamide] was run?
Answer: 3.01 µM

Question: `O=C(NCCN1CCOC1=O)c1ccc2cc(Oc3ccc(C(F)(F)F)cn3)ccc2n1` [Example 605, N-[2-(2-oxo-1,3-oxazolidin-3-yl)ethyl]-6-{[5-(trifluoromethyl)pyridin-2-yl]oxy}quinoline-2-carboxamide] was tested. Which IC50 did it give?
Answer: 2.88 µM

Question: For `O=C(NCCc1ccccn1)c1ccc2cc(Oc3ccc(C(F)(F)F)cn3)ccc2n1` [Example 606, N-[2-(pyridin-2-yl)ethyl]-6-{[5-(trifluoromethyl)pyridin-2-yl]oxy}quinoline-2-carboxamide], which IC50 is on record?
Answer: 0.856 µM

Question: For `O=C(NCCCc1ccccn1)c1ccc2cc(Oc3ccc(C(F)(F)F)cn3)ccc2n1` [Example 607, N-[3-(pyridin-2-yl)propyl]-6-{[5-(trifluoromethyl)pyridin-2-yl]oxy}quinoline-2-carboxamide], which IC50 is on record?
Answer: 0.91 µM

Question: How did the IC50 turn out when `O=C(NCCCN1CCCC1=O)c1ccc2cc(Oc3ccc(C(F)(F)F)cn3)ccc2n1` [Example 608, N-[3-(2-oxopyrrolidin-1-yl)propyl]-6-{[5-(trifluoromethyl)pyridin-2-yl]oxy}quinoline-2-carboxamide] was run?
Answer: 2.7 µM

Question: Which IC50 does the source give for `O=C1CC(CNC(=O)c2ccc3cc(Oc4ccc(C(F)(F)F)cn4)ccc3n2)CN1` (stereo not shown) [Example 609, N-[(5-oxopyrrolidin-3-yl)methyl]-6-{[5-(trifluoromethyl)pyridin-2-yl]oxy}quinoline-2-carboxamide] here?
Answer: 4.5 µM

Question: Which IC50 does the source give for `CC(=O)NCC(C)CNC(=O)c1ccc2cc(Oc3ccc(C(F)(F)F)cn3)ccc2n1` (stereo not shown) [Example 610, N-(3-acetamido-2-methylpropyl)-6-{[5-(trifluoromethyl)pyridin-2-yl]oxy}quinoline-2-carboxamide] here?
Answer: 2.76 µM

Question: Which IC50 does the source give for `CC(=O)NCCCNC(=O)c1ccc2cc(Oc3ccc(C(F)(F)F)cn3)ccc2n1` [Example 613, N-(3-acetamidopropyl)-6-{[5-(trifluoromethyl)pyridin-2-yl]oxy}quinoline-2-carboxamide] here?
Answer: 2.21 µM

Question: With `O=C1CCC2N1CCCN2C(=O)c1ccc2cc(Oc3ccc(C(F)(F)F)cn3)ccc2n1` (stereo not shown) [Example 614, 1-[(6-{[5-(trifluoromethyl)pyridin-2-yl]oxy}quinolin-2-yl)carbonyl]hexahydropyrrolo[1,2-a]pyrimidin-6(2H)-one] as the compound, how does the IC50 read?
Answer: 12.2 µM

Question: How did the IC50 turn out when `O=C(NCCC1CS(=O)(=O)C1)c1ccc2cc(Oc3ccc(C(F)(F)F)cn3)ccc2n1` [Example 615, N-[2-(1,1-dioxidothietan-3-yl)ethyl]-6-{[5-(trifluoromethyl)pyridin-2-yl]oxy}quinoline-2-carboxamide] was run?
Answer: 2.32 µM

Question: For `O=C(NC1CC(F)C1)c1ccc2cc(Oc3ccc(C(F)F)cn3)ccc2n1` (stereo not shown) [Example 617, 6-{[5-(difluoromethyl)pyridin-2-yl]oxy}-N-(3-fluorocyclobutyl)quinoline-2-carboxamide], which IC50 is on record?
Answer: 2.78 µM

Question: Which IC50 does the source give for “[cis-2,2-dimethyltetrahydro-5H-[1,3]dioxolo[4,5-c]pyrrol-5-yl](6-{[5-(trifluoromethyl)pyridin-2-yl]oxy}quinolin-2-yl)methanone [Example 373]” here?
Answer: 3.7 µM

Question: “{2-[(dimethylamino)methyl]morpholin-4-yl}(6-{[5-(trifluoromethyl)pyridin-2-yl]oxy}quinolin-2-yl)methanone [Example 374]” was tested. Which IC50 did it give?
Answer: 0.97 µM

Same assay, conditions: read-out: FRET-Membrane Potential Nav1.7 IC50

Question: `CN(CCS(C)(=O)=O)C(=O)c1ccc2cc(Oc3ccc(C(F)(F)F)cn3)ccc2n1` [Example 611, N-methyl-N-[2-(methylsulfonyl)ethyl]-6-{[5-(trifluoromethyl)pyridin-2-yl]oxy}quinoline-2-carboxamide] was tested. Which IC50 did it give?
Answer: 4.99 µM

Question: For `CS(=O)(=O)CCCCNC(=O)c1ccc2cc(Oc3ccc(C(F)(F)F)cn3)ccc2n1` [Example 612, N-[4-(methylsulfonyl)butyl]-6-{[5-(trifluoromethyl)pyridin-2-yl]oxy}quinoline-2-carboxamide], which IC50 is on record?
Answer: 2.93 µM

Question: Which IC50 does the source give for `COCC1(F)CCN(C(=O)c2ccc3cc(Oc4ccc(C(F)(F)F)cn4)ccc3n2)CC1` [Example 618, [4-fluoro-4-(methoxymethyl)piperidin-1-yl](6-{[5-(trifluoromethyl)pyridin-2-yl]oxy}quinolin-2-yl)methanone] here?
Answer: 2.69 µM

Tested on: osteoarthritic rats
Experiment: Osteoarthritic (OA) pain induced by sodium monoiodoacetate (MIA), hind limb grip force
Assay type: in vivo, rat
Details: Rattus norvegicus, 480 h, OA dose 10 mg/kg; rat, 20 days following MIA injection, hind limb grip force; read-out: OA MPE
Experimental: Osteoarthritic (OA) Pain Induced by Sodium Monoiodoacetate (MIA)
Pain behavior was assessed by measurement of hind limb grip force (GF) in adult osteoarthritic rats. Male Sprague Dawley rats, obtained from Charles River Laboratories, (Wilmington, Mass.), weighing 150-175 g, were injected in the unilateral knee join with a single intra-articular injection of sodium monoiodoacetate (MIA, 3 mg/rat). All rats were tested at 20 days following MIA injection. A behavioral measure of activity-induced pain was carried out. Measurements of the peak hind limb grip force were conducted by recording the maximum compressive force (CFmax), in grams of force, exerted on a hind limb strain gauge setup, in a commercially available grip force measurement system (Columbus Instruments, Columbus, Ohio).
During testing, each rat was gently restrained by grasping it around its rib cage and then allowed to grasp the wire mesh frame attached to the strain gauge. The experimenter then moved the animal in a rostral-to-caudal direction until the grip was broken. Each rat was sequentially tested twice at an approximately 2-3 minute interval to obtain a raw mean grip force (CFmax). This raw mean grip force data was in turn converted to a maximum hindlimb cumulative compressive force (CFmax), as the grams of force/kg of body weight, for each animal.
For evaluating the compound effects, the hind limb grip force was conducted 20 days following the intra-articular injection of MIA. A group of age-matched naïve (not injected with MIA) animals was added as a comparator to the drug-dosed groups. The vehicle control response for each group of MIA-treated animals was defined as the 0% response (0% effect), whereas the naïve control group was defined as the normal response and as 100% effect. The % effect for each dose group was expressed as % return of response to normalcy, compared to the naïve group. A percent maximal possible effect (% MPE) of testing compound was calculated according to the formula: (Treatment CFmax−Vehicle CFmax)/Vehicle CFmax]×100). Higher % effect numbers indicate increased relief from the pain in the model, with 100% indicating a return to the level of response seen in normal (non-osteoarthritic) animals. All experiments evaluating drug effects in this model were conducted in a randomized blinded fashion.
The animals were housed in Association for Assessment and Accreditation of Laboratory Animal Care (AAALAC) approved facilities at AbbVie Inc. in a temperature-regulated environment under a controlled 12-hour light-dark cycle, with lights on at 6:00 a.m. Food and water were available ad libitum at all times except during testing. All testing was done following procedures outlined in protocols approved by AbbVie Inc.'s Institutional Animal Care and Use Committee.

Question: With `O=C(c1ccc2cc(Oc3ccc(C(F)(F)F)cn3)ccc2n1)N1C[C@@H](O)[C@@H](O)C1` [Example 9, [cis-3,4-dihydroxypyrrolidin-1-yl](6-{[5-(trifluoromethyl)pyridin-2-yl]oxy}quinolin-2-yl)methanone] as the compound, how does the inhibition in vivo at 10 mg/kg read?
Answer: 68%

Question: How did the inhibition in vivo at 10 mg/kg turn out when `CS(=O)(=O)C1CN(C(=O)c2ccc3cc(Oc4ccc(C(F)(F)F)cn4)ccc3n2)C1` [Example 29, [3-(methylsulfonyl)azetidin-1-yl](6-{[5-(trifluoromethyl)pyridin-2-yl]oxy}quinolin-2-yl)methanone] was run?
Answer: 20%

Same assay, conditions: Rattus norvegicus, 480 h, OA dose 30 mg/kg; rat, 20 days following MIA injection, hind limb grip force; read-out: OA MPE

Question: Which inhibition in vivo at 30 mg/kg does the source give for `O=C(c1ccc2cc(Oc3ccc(C(F)(F)F)cn3)ccc2n1)N1C[C@@H]2C[C@H]1CN2` [Example 3, (1S,4S)-2,5-diazabicyclo[2.2.1]hept-2-yl(6-{[5-(trifluoromethyl)pyridin-2-yl]oxy}quinolin-2-yl)methanone] here?
Answer: 46%

Question: For `O=C(N[C@@H]1CCS(=O)(=O)C1)c1ccc2cc(Oc3ccc(C(F)(F)F)cn3)ccc2n1` [Example 5, N-[(3R)-1,1-dioxidotetrahydrothiophen-3-yl]-6-{[5-(trifluoromethyl)pyridin-2-yl]oxy}quinoline-2-carboxamide], which inhibition in vivo at 30 mg/kg is on record?
Answer: 27%

Question: Which inhibition in vivo at 30 mg/kg does the source give for `CC(=O)c1ccc(Oc2ccc3nc(C(=O)N4CCNCC4)ccc3c2)cc1` [Example 7, 1-(4-{[2-(piperazin-1-ylcarbonyl)quinolin-6-yl]oxy}phenyl)ethanone] here?
Answer: 51%

Question: Which inhibition in vivo at 30 mg/kg does the source give for `NC1CN(C(=O)c2ccc3cc(Oc4ccc(C(F)(F)F)cn4)ccc3n2)C1` [Example 8, (3-aminoazetidin-1-yl)(6-{[5-(trifluoromethyl)pyridin-2-yl]oxy}quinolin-2-yl)methanone] here?
Answer: 91%

Question: With `O=C(c1ccc2cc(Oc3ccc(OC(F)(F)F)cn3)ccc2n1)N1CCNCC1` [Example 431, piperazin-1-yl(6-{[5-(trifluoromethoxy)pyridin-2-yl]oxy}quinolin-2-yl)methanone] as the compound, how does the inhibition in vivo at 30 mg/kg read?
Answer: 73%
